Assay results taken from US20140350119A1, “OPHTHALMIC COMPOSITION COMPRISING GERANYLGERANYLACETONE” (ROHTO PHARMACEUTICAL CO., LTD., priority 2012, published 2014).

How the values were obtained:
[1] = system: ARPE-19; assay: Protective effect for retinal pigment epithelial cells against oxidative stress by hydrogen peroxide; type: cell-based, human; details: all-trans form content 280 μM, 14 hours, then 750 μM hydrogen peroxide 2 hours, FIG. 4, n=3
Excerpt: The involvement of oxidative stress in ophthalmologic diseases has been widely reported. Such involvement has been observed in, in addition to glaucoma and cataract, retinal diseases such as retinal diseases due to diabetes, hypertension, hyperlipemia, etc., age-related macular degeneration, retinopathy of prematurity, retinal vascular occlusion, retinal light damage, etc. (Nippon Ganka Gakkai Zasshi. 112, 22-29 (2008)). In the retina, the retinal pigment epithelium exists in an environment in which reactive oxygen easily generates (Invest Opthalmol Vis Sci. 2006 July 47(7): 3164-3177.). […]
After 2 hours of incubation, the cell culture supernatant was removed, and 200 μL of PBS was added to each well and promptly removed. Then, 100 μL of an equivalent mixture of a cell viability detection reagent Cell Titer-Glo (Promega) and PBS was added to each well and the luminescence produced by the reaction with ATP in living cells was measured with a luminometer (GloMax; Promega). The cell viability was calculated from the measured luminescence by the following formula and the cytoprotective effect of GGA against oxidative stress by hydrogen peroxide was examined.
Cell viability (%)=100×[(luminescence of base- or GGA-treated group)/(luminescence of non-treated group)]

[2] = system: rat-derived retinal ganglion cells (RGC); assay: Neurite outgrowth inducing effect in culture system of rat-derived retinal ganglion cells; type: cell-based, Wistar rats; details: all-trans form content 3 μM; 48 hours; FIG. 2, FIG. 3; n=4
Excerpt: The progress of visual impairment in glaucoma is associated with retinal ganglion cell (RGC) death due to blood flow failure occurring near the optic nerve (Folia Pharmacol. Jpn. 128, 255-258 (2006)). Accordingly, a culture system of rat-derived retinal neurons (Current protocols in Neuroscience 3.22.1-3.22.10, October 2010), which is widely used as one of study tools for optic nerve diseases such as a glaucoma, was used to examine the neurite outgrowth inducing effect of GGA.
Four-day-old Wistar rats (Japan SLC, Inc.) were euthanized by cervical dislocation and the eyeballs were harvested. The harvested eyeballs were immersed in 70% ethanol for 10 seconds and transferred to a Hanks' balanced salt solution containing 100 U/mL penicillin and 100 μg/mL streptomycin. Under a stereoscopic microscope, the corneas, irises, crystalline lenses, and vitreous bodies were removed using scissors for surgery and forceps, and the retinal tissue was harvested. The harvested retinal tissue was transferred to a centrifugation tube containing 5 mL of a basal medium for neuronal cells (Neurobasal, Invitrogen) containing 100 U/mL penicillin, 100 μg/mL streptomycin, a neural cell culture supplement (B27™-Supplement, Invitrogen), 1 μM L-cysteine (Kyowa Hakko Bio) and 15 U/mL papain (Sigma Aldrich) and incubated at 37° C. for 30 minutes. […]

CC(=O)CC/C=C(\C)CC/C=C(\C)CC/C=C(\C)CCC=C(C)C [all-trans form, (5E,9E,13E)-6,10,14,18-tetramethyl-5,9,13,17-nonadecatetrae n-2-one]
Cell viability compared with base-treated group [1]: significantly higher cell viabilities
Neurite inducing effect (mean length of neurites of RGC) compared with GGA 6:4 and base [2]: significant neurite inducing effect
